The values that follow come from publication PMC9490041, “Determinants of affinity, specificity, and phase separation in a supramodule from Post-synaptic density protein 95” (iScience, 2022).

Where two headings read alike, the source gives them in different places. Ends that are not written are not given here.

What all share (experiment): FP displacement (competition) of FITC-15 AA CRIPT by library peptide, IC50 and Ki
In one assay the target is PSG G322A G335A (PSD-95). Conditions: for IC50: read-out: IC50 (µM), PSG G322A G335A; for Ki: read-out: Ki (µM), PSG G322A G335A.
The target of another assay is PSG G335A (PSD-95). Conditions: for IC50: read-out: IC50 (µM), PSG G335A; for Ki: read-out: Ki (µM), PSG G335A.
The next assay addresses PSG G322A (PSD-95). Conditions: for IC50: read-out: IC50 (µM), PSG G322A; for Ki: read-out: Ki (µM), PSG G322A.
In a further assay the target is PSG (PSD-95). Conditions: for IC50: read-out: IC50 (µM), PSG.
In another assay the target is PDZ3 (PSD-95) (Homo sapiens, UniProt P78352).
Sequence of PDZ3 (PSD-95) (P78352 313-393 limits assumed): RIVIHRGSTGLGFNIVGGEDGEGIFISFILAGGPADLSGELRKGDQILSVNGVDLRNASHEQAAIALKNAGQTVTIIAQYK
Where [1] appears, read: FP displacement of FITC-15 AA CRIPT probe by acetylated PSD library peptide (P-13 to P0 plus extra N-terminal Y).
[2] abbreviates: FP displacement of FITC-15 AA CRIPT probe by acetylated PSD library peptide.
Setting [3] is: FP displacement of 5 nM FITC-15 AA CRIPT by non-labeled acetylated peptide, room temperature, Ki from IC50, technical triplicates, PSG.
Where [4] appears, read: read-out: Ki (µM), PSG, FP displacement of FITC-15 AA CRIPT probe by acetylated PSD library peptide.
The mark [5] stands for this setting: Ki (µM), PDZ3, FP displacement of FITC-15 AA CRIPT probe by acetylated PSD library peptide.
Where [6] appears, read: Ki, FP displacement of 5 nM FITC-15 AA CRIPT by non-labeled acetylated peptide, room temperature, Ki from IC50, technical triplicates, PDZ3.
Setting [7] is: FP displacement of FITC-15 AA CRIPT probe by PSD library peptide, protein PSG G322A G335A.
Where [8] appears, read: FP displacement of FITC-15 AA CRIPT probe by PSD library peptide, protein PSG G335A.
The mark [9] stands for this setting: FP displacement of FITC-15 AA CRIPT probe by PSD library peptide, protein PSG G322A.
[10] abbreviates: Ki (µM), PDZ3, FP displacement of FITC-15 AA CRIPT probe by PSD library peptide, protein PDZ3.

With `CC[C@H](C)[C@H](NC(=O)[C@H](CO)NC(=O)[C@H](CCC(N)=O)NC(=O)[C@H](CCCNC(=N)N)NC(=O)[C@H](CCCCN)NC(=O)[C@H](CO)NC(=O)[C@H](CC(=O)O)NC(=O)[C@@H]1CCCN1C(=O)[C@H](Cc1ccc(O)cc1)NC(C)=O)C(=O)N[C@@H](CC(C)C)C(=O)N[C@@H](Cc1ccccc1)C(=O)N[C@@H](CO)C(=O)N[C@H](C(=O)N[C@@H](CCC(=O)O)C(=O)N[C@H](C(=O)O)C(C)C)[C@@H](C)O` [BCR], the 50% inhibitory concentration (IC50) at PSG G322A G335A (PSD-95) (setting [1]) was 21 µM; at PSG G335A (PSD-95) (setting [2]) it was 33 µM; at PSG G322A (PSD-95) (setting [2]), 27 µM; on PSG (PSD-95) (setting [2]), 110 µM. The Ki on PSG G322A G335A (PSD-95) (setting [2]) was 7 µM; on PSG G335A (PSD-95) (setting [2]) it was 12 µM; on PSG G322A (PSD-95) (setting [2]) it was 12 µM; on PSG (PSD-95) (setting [3]), less than 75 µM; on PSG (PSD-95) (setting [4]), 46 µM; at PDZ3 (PSD-95) (setting [5]), 42 µM. At PDZ3 (PSD-95) (setting [6]), this compound showed an inhibition constant (Ki) of less than 75 µM.

Regarding `CC(=O)N[C@@H](Cc1ccc(O)cc1)C(=O)N[C@@H](CCC(=O)O)C(=O)N[C@@H](CCC(=O)O)C(=O)N[C@@H](CCC(=O)O)C(=O)N[C@@H](CC(C)C)C(=O)N[C@@H](CCC(N)=O)C(=O)N[C@@H](CC(=O)O)C(=O)N[C@@H](CO)C(=O)N[C@@H](CCCNC(=N)N)C(=O)N[C@H](C(=O)N[C@@H](Cc1ccc(O)cc1)C(=O)N[C@H](C(=O)N[C@@H](CO)C(=O)N[C@@H](CO)C(=O)N[C@@H](CC(C)C)C(=O)O)C(C)C)C(C)C` [CAC1C], the IC50 on PSG G322A G335A (PSD-95) (setting [7]) came to 82 µM; on PSG G335A (PSD-95) (setting [8]), 90 µM; on PSG G322A (PSD-95) (setting [9]), 99 µM; at PSG (PSD-95) (FP displacement of FITC-15 AA CRIPT probe by PSD library peptide, protein PSG (wild type)), 200 µM. For the same compound, the Ki at PSG G322A G335A (PSD-95) (setting [7]) worked out at 28 µM; on PSG G335A (PSD-95) (setting [8]), 32 µM; on PSG G322A (PSD-95) (setting [9]), 43 µM; on PSG (PSD-95) (read-out: Ki (µM), PSG, FP displacement of FITC-15 AA CRIPT probe by PSD library peptide, protein PSG (wild type)) it was 105 µM; on PDZ3 (PSD-95) (setting [10]), 449 µM.

Take `CC(=O)N[C@@H](Cc1ccc(O)cc1)C(=O)N[C@@H](C)C(=O)N[C@@H](CO)C(=O)N[C@@H](CC(N)=O)C(=O)N[C@H](C(=O)N[C@@H](CC(N)=O)C(=O)N[C@H](C(=O)N[C@@H](CC(C)C)C(=O)N[C@@H](CC(N)=O)C(=O)N[C@@H](CCCNC(=N)N)C(=O)N[C@@H](CCCCN)C(=O)N[C@H](C(=O)N[C@H](C(=O)N1CCC[C@H]1C(=O)N[C@H](C(=O)O)C(C)C)[C@@H](C)O)[C@@H](C)O)[C@@H](C)O)[C@@H](C)O` [CCG8]: the half-maximal inhibitory concentration (IC50) on PSG G335A (PSD-95) (setting [2]) amounted to 28 µM; at PSG G322A (PSD-95) (setting [2]) it was 15 µM; on PSG (PSD-95) (setting [2]), 116 µM; at PDZ3 (PSD-95) it was 19 µM. Also, the inhibition constant Ki was 10 µM on PSG G335A (PSD-95) (setting [2]); 6 µM at PSG G322A (PSD-95) (setting [2]); less than 75 µM at PSG (PSD-95) (setting [3]); 49 µM at PSG (PSD-95) (setting [4]); less than 75 µM on PDZ3 (PSD-95) (setting [6]).

With `CC(=O)N[C@@H](Cc1ccc(O)cc1)C(=O)N[C@@H](CO)C(=O)N[C@@H](CC(C)C)C(=O)N[C@@H](CO)C(=O)N[C@@H](CCCCN)C(=O)N[C@@H](Cc1c[nH]cn1)C(=O)N[C@@H](CCC(=O)O)C(=O)N[C@@H](CO)C(=O)N[C@@H](CCC(=O)O)C(=O)N[C@@H](Cc1ccc(O)cc1)C(=O)N[C@@H](CC(N)=O)C(=O)N[C@H](C(=O)N[C@H](C(=O)N[C@@H](CCCNC(=N)N)C(=O)N[C@H](C(=O)O)C(C)C)[C@@H](C)O)[C@@H](C)O` [NETO1], the IC50 on PSG G322A G335A (PSD-95) (setting [1]) turned out to be 63 µM; at PSG G335A (PSD-95) (setting [2]), 77 µM; at PSG (PSD-95) (setting [2]), 239 µM; on PDZ3 (PSD-95), 182 µM. In addition, the Ki at PSG G322A G335A (PSD-95) (setting [2]) is 22 µM; on PSG G335A (PSD-95) (setting [2]), 27 µM; on PSG G322A (PSD-95) (setting [2]), 45 µM; on PSG (PSD-95) (setting [4]), 101 µM; on PDZ3 (PSD-95) (setting [5]), 75 µM; on PDZ3 (PSD-95) (setting [6]) it was less than 75 µM.

As to Ac-YDSIEIYIPEAQTRL [DLGP2], the 50% inhibitory concentration (IC50) at PDZ3 (PSD-95) was 396 µM. This compound showed an inhibition constant Ki at PDZ3 (PSD-95) (setting [10]) of 165 µM.

Ac-YQARRGKKKSGSLVL [RHOA]: the 50% inhibitory concentration (IC50) on PSG G322A G335A (PSD-95) (setting [1]) stood at 1320 µM; on PSG G322A (PSD-95) (setting [2]), 834 µM; on PSG (PSD-95) (setting [2]) it was 2160 µM. Also, the Ki on PSG G322A G335A (PSD-95) (setting [2]) was 457 µM; on PSG G322A (PSD-95) (setting [2]), 362 µM; at PSG (PSD-95) (setting [4]) it was 923 µM; at PDZ3 (PSD-95) (setting [5]), 548 µM.

A word on the IC50: it is the concentration that gives 50% inhibition. As a reminder, the Ki is a measure of affinity in units of concentration, obtained from inhibition or displacement.
